Measured values taken from patent US12116356B2, “N-heterocyclic five-membered ring-containing capsid protein assembly inhibitor, pharmaceutical composition thereof, and use thereof” (CHIA TAI TIANQING PHARMACEUTICAL GROUP CO., LTD., priority 2018, dated 2024).
Like-named read-outs stand apart in the source and are kept apart here.

Tests used:
Format in all cases: cell-based
HBV DNA in HepAD38 cells = assay: In vitro cell HBV DNA inhibitory activity (anti-HBV activity) in HepAD38 cells; settings: Hepatitis B virus
Method: (§1) A bottle of HepG2.2.15 or HepAD38 cells in good exponential growth state was taken, washed once by adding 5 mL PBS, and then thereto was added 3 mL trypsin. After digesting at room temperature for 5 min, 2 mL trypsin was discarded, and then the sample was placed in a cell culture incubator and digested for 10 min. The cells were taken out from time to time and observed under a microscope (whether the cells were individually round and there was no adhesion between the cells). 10 mL complete medium was added to terminate the digestion. After pipetting into a single cell suspension, 10 μL of the cell suspension was taken out for cell counting with a cell counter, and then diluted with a complete medium and adjusted to a cell density of 1*10^5 cells/mL. Then the cell suspension was seeded at 1 mL/well in a 24-well plate with a multi-channel pipette (the 24-well plate was coated with 50 μg/mL Collagen I solution in advance), and cultured in a constant temperature CO2 incubator for 48 h.
(§2) Different compounds dissolved in DMSO were subjected to two-fold gradient dilution (10 concentrations in total) with complete medium. The compound was added, and fresh medium containing the compound was used to replace the spent medium every 72 hours. The cells were treated with the compound for 6 days. After the supernatant was siphoned off, 300 μL lysate (10 mM Tris-HCl, 1 mM EDTA, and 1% NP-40) was added to each well. After lysing at room temperature for 10 min, DNA was extracted, and HBV DNA in the intracellular viral capsid was measured by real-time fluorescence quantitative PCR. The inhibition rate was calculated based on the Ct value, and the EC50 value was calculated by the four-parameter method.

[1] = system: HBV DNA in HepG2.2.15 cells; assay: In vitro cell HBV DNA inhibitory activity (anti-HBV activity) in HepG2.2.15 cells; settings: Hepatitis B virus
Method: as §1, §2

[2] = In vitro cytotoxicity (CCK-8) in HepAD38 cells; settings: human
Method: (§3) A bottle of HepG2.2.15 or HepAD38 cells in good exponential growth state was taken, washed once by adding 5 mL PBS, and then thereto was added 3 mL trypsin. The sample was digested in a cell culture incubator, and taken out from time to time and observed under a microscope. When the cells just fell off, 1 mL trypsin was discarded. The residual liquid was placed in a cell culture incubator at 37° C. and digested for 8-15 min. The cells were taken out and observed under a microscope (whether the cells were individually round and there was no adhesion between the cells). 5 mL MEM medium was added for cell resuspension. The cells were then subjected to cell counting with a cell counter, diluted with a complete medium, and adjusted to a cell density of 2*10^5 cells/mL. Then the cells were seeded at 100 μL/well in a 96-well plate with a multi-channel pipette (the 96-well plate was coated with 50 μg/mL Collagen I solution in advance), and cultured in a constant temperature CO2 incubator for 24 h. The cells were treated by drug administration, and fresh medium containing the compound was used to replace the spent medium every 3 days. To control wells was added a drug-free medium containing 0.5% DMSO, and a control well containing a common medium was set up. 6 days after the administration, CCK-8 was added at 10 μL/well. After 1 to 2 hours, the absorbance was detected with microplate reader at 450 nm, and the inhibition rate and the CC50 were calculated.

[3] = In vitro cytotoxicity (CCK-8) in HepG2.2.15 cells; settings: human
Method: as §3

[4] = 144 h, anti-HBV activity in HepAD38 cells, 6 days treatment, intracellular capsid HBV DNA by qPCR, read-out: EC50
[5] = 144 h, anti-HBV activity in HepG2.2.15 cells, 6 days treatment, intracellular capsid HBV DNA by qPCR, read-out: EC50

For `Cc1c(C(=O)Nc2ccc(F)c(C#N)c2)c(C)n(C)c1C(=O)C(=O)N[C@H]1C[C@H](O)C1` [Example 3, N-(3-cyano-4-fluorophenyl)-5-(2-((trans-3-hydroxycyclobutyl)amino)-2-oxoacetyl)-1,2,4-trimethyl-1H-pyrrole-3-carboxamide], the EC50 (HBV DNA in HepAD38 cells; [4]) was 0.05 to 0.1 µM.

For `Cc1c(C(=O)Nc2ccc(F)c(C#N)c2)c(C)n(C)c1C(=O)C(=O)N[C@H]1C[C@@H](O)C1` [Example 4, N-(3-cyano-4-fluorophenyl)-5-(2-((cis-3-hydroxycyclobutyl)amino)-2-oxoacetyl)-1,2,4-trimethyl-1H-pyrrole-3-carboxamide], the EC50 (HBV DNA in HepAD38 cells; [4]) was 0.01 to 0.05 µM.

In the case of `Cc1c(C(=O)Nc2ccc(F)c(C#N)c2)c(C)n(C)c1C(=O)C(=O)NC1COC1` [Example 5, N-(3-cyano-4-fluorophenyl)-1,2,4-trimethyl-5-(2-(oxetan-3-ylamino)-2-oxoacetyl)-1H-pyrrole-3-carboxamide], the EC50 (HBV DNA in HepAD38 cells; [4]) is reported as 0.01 to 0.05 µM.

`Cc1c(C(=O)Nc2ccc(F)c(C#N)c2)c(C)n(C)c1C(=O)C(=O)N[C@H]1C[C@@H](CO)C1` [Example 10, N-(3-cyano-4-fluorophenyl)-5-(2-((cis-3-(hydroxymethyl)cyclobutyl)amino)-2-oxoacetyl)-1,2,4-trimethyl-1H-pyrrole-3-carboxamide] showed an EC50 (HBV DNA in HepAD38 cells; [4]) of 0.01 to 0.05 µM.

`Cc1c(C(=O)Nc2ccc(F)c(C#N)c2)cn(C)c1C(=O)C(=O)NC(C)(C)C` [Example 14, 5-(2-(tert-butylamino)-2-oxoacetyl)-N-(3-cyano-4-fluorophenyl)-1,4-dimethyl-1H-pyrrole-3-carboxamide] gave an EC50 (HBV DNA in HepAD38 cells; [4]) of 0.01 to 0.05 µM.

With `Cc1c(C(=O)Nc2ccc(F)c(C#N)c2)cc(C(=O)C(=O)NC(C)(C)C)n1C` [Example 16, 5-(2-(tert-butylamino)-2-oxoacetyl)-N-(3-cyano-4-fluorophenyl)-1,2-dimethyl-1H-pyrrole-3-carboxamide] the EC50 [1, 5] was < 0.01 µM and the CC50 at 6 days [2] was > 100 µM.

Work on `Cn1c(Br)c(C(=O)Nc2ccc(F)c(C#N)c2)c(Br)c1C(=O)C(=O)NC(C)(C)C` [Example 20, 2,4-dibromo-5-(2-(tert-butylamino)-2-oxoacetyl)-N-(3-cyano-4-fluorophenyl)-1-methyl-1H-pyrrole-3-carboxamide] yielded an EC50 [1, 5] of 0.05 to 0.1 µM and an EC50 (HBV DNA in HepAD38 cells; [4]) of 0.01 to 0.05 µM.

In the case of `Cc1c(C(=O)Nc2ccc(F)c(C#N)c2)c(C)n(C)c1C(=O)C(=O)N[C@@H]1CCOC1` [Example 21], the EC50 [1, 5] is reported as 0.05 to 0.1 µM, the CC50 at 6 days [2] is reported as > 100 µM and the CC50 at 6 days [3] is reported as > 100 µM. It also gave an EC50 (HBV DNA in HepAD38 cells; [4]) of 0.01 to 0.05 µM.

For `Cc1c(C(=O)Nc2ccc(F)c(C#N)c2)c(C)n(C)c1C(=O)C(=O)N[C@H]1CCOC1` [Example 22], the EC50 [1, 5] was 0.01 to 0.05 µM, the CC50 at 6 days [2] was > 100 µM and the CC50 at 6 days [3] was > 100 µM. It also gave an EC50 (HBV DNA in HepAD38 cells; [4]) of 0.01 to 0.05 µM.

With `Cc1c(C(=O)Nc2ccc(F)c(C#N)c2)c(C)n(C)c1C(=O)C(=O)NC1(C)CCOC1` (stereo not drawn) [Example 23] the EC50 [1, 5] was < 0.01 µM, the CC50 at 6 days [2] was > 100 µM and the CC50 at 6 days [3] was > 100 µM. The EC50 (HBV DNA in HepAD38 cells; [4]) was < 0.01 µM.

For `Cc1c(C(=O)Nc2ccc(F)c(C#N)c2)c(C)n(C)c1C(=O)C(=O)NC1(C)CCOCC1` [Example 24, N-(3-cyano-4-fluorophenyl)-1,2,4-trimethyl-5-(2-((4-methyltetrahydro-2H-pyran-4-yl)amino)-2-oxoacetyl)-1H-pyrrole-3-carboxamide], the EC50 [1, 5] was < 0.01 µM, the CC50 at 6 days [2] was > 100 µM and the CC50 at 6 days [3] was > 100 µM. The EC50 (HBV DNA in HepAD38 cells; [4]) was < 0.01 µM.

In the case of `Cc1c(C(=O)Nc2ccc(F)c(C#N)c2)c(C)n(C)c1C(=O)C(=O)NC1(CO)COC1` [Example 26], the EC50 [1, 5] is reported as 0.05 to 0.1 µM, the CC50 at 6 days [2] is reported as > 100 µM and the CC50 at 6 days [3] is reported as > 100 µM. It also gave an EC50 (HBV DNA in HepAD38 cells; [4]) of 0.05 to 0.1 µM.

For `CNC(=O)C1(NC(=O)C(=O)c2c(C)c(C(=O)Nc3ccc(F)c(C#N)c3)c(C)n2C)CC(F)(F)C1` [Example 28], the EC50 (HBV DNA in HepAD38 cells; HePAD38, 144 h) was 0.01 to 0.05 µM.

In the case of `Cc1c(C(=O)Nc2ccc(F)c(C#N)c2)c(Cl)n(C)c1C(=O)C(=O)NC1(C)CCOCC1` [Example 31], the EC50 (HBV DNA in HepAD38 cells; [4]) is reported as < 0.01 µM.

In the case of `Cc1c(C(=O)Nc2ccc(F)c(C#N)c2)c(Cl)n(C)c1C(=O)C(=O)NC1(C(F)(F)F)COC1` [Example 32], the EC50 (HBV DNA in HepAD38 cells; [4]) is reported as < 0.01 µM.

`Cc1c(C(=O)Nc2ccc(F)c(C#N)c2)c(Cl)n(C)c1C(=O)C(=O)NC1(C)COC1` [Example 34, 2-chloro-N-(3-cyano-4-fluorophenyl)-1,4-dimethyl-5-(2-((3-methyloxetan-3-yl)amino)-2-oxoacetyl)-1H-pyrrole-3-carboxamide] gave an EC50 (HBV DNA in HepAD38 cells; [4]) of 0.01 to 0.05 µM.

For `Cc1c(C(=O)Nc2ccc(F)c(Cl)c2)c(Cl)n(C)c1C(=O)C(=O)N[C@@H](C)C(F)(F)F` [Example 35, (S)-2-chloro-N-(3-chloro-4-fluorophenyl)-1,4-dimethyl-5-(2-oxo-2-((1,1,1-trifluoroprop-2-yl)amino)acetyl)-1H-pyrrole-3-carboxamide], the EC50 (HBV DNA in HepAD38 cells; [4]) was < 0.01 µM.

For `Cc1c(C(=O)Nc2ccc(F)c(Cl)c2)c(C)n(C)c1C(=O)C(=O)NC1(C)CCOCC1` [Example 36, N-(3-chloro-4-fluorophenyl)-1,2,4-trimethyl-5-(2-((4-methyltetrahydro-2H-pyran-4-yl)amino)-2-oxoacetyl)-1H-pyrrole-3-carboxamide], the EC50 (HBV DNA in HepAD38 cells; [4]) was < 0.01 µM.

With `Cc1c(C(=O)Nc2ccc(F)c(Cl)c2)c(C)n(C)c1C(=O)C(=O)N[C@@H](C)C(F)(F)F` [Example 37, (S)—N-(3-chloro-4-fluorophenyl)-1,2,4-trimethyl-5-(2-oxo-2-((1,1,1-trifluoroprop-2-yl)amino)acetyl)-1H-pyrrole-3-carboxamide] the EC50 (HBV DNA in HepAD38 cells; [4]) was < 0.01 µM.

In the case of `Cc1c(C(=O)Nc2ccc(F)c(F)c2)c(C)n(C)c1C(=O)C(=O)N[C@@H](C)C(F)(F)F` [Example 38, (S)—N-(3,4-difluorophenyl)-1,2,4-trimethyl-5-(2-oxo-2-((1,1,1-trifluoroprop-2-yl)amino)acetyl)-1H-pyrrole-3-carboxamide], the EC50 [1, 5] is reported as < 0.01 µM and the EC50 (HBV DNA in HepAD38 cells; [4]) is reported as < 0.01 µM.

For `Cc1c(C(=O)Nc2ccc(F)cc2)c(C)n(C)c1C(=O)C(=O)N[C@@H](C)C(F)(F)F` [Example 39], the EC50 [1, 5] was < 0.01 µM, the CC50 at 6 days [3] was > 100 µM and the EC50 (HBV DNA in HepAD38 cells; [4]) was < 0.01 µM.

For `Cc1c(C(=O)Nc2ccc(F)c(C#N)c2)c(C)n(C)c1C(=O)C(=O)NC1(C)CC(O)C1` (stereo not drawn) [Example 46, N-(3-cyano-4-fluorophenyl)-5-(2-((3-hydroxy-1-methylcyclobutyl)amino)-2-oxoacetyl)-1,2,4-trimethyl-1H-pyrrole-3-carboxamide], the EC50 [1, 5] was < 0.01 µM and the EC50 (HBV DNA in HepAD38 cells; [4]) was 0.01 to 0.05 µM.

For `Cc1c(C(=O)Nc2cc(F)c(F)c(F)c2)c(C)n(C)c1C(=O)C(=O)NC1(C)COC1` [Example 47, 1,2,4-trimethyl-5-(2-((3-methyloxetan-3-yl)amino)-2-oxoacetyl)-N-(3,4,5-trifluorophenyl)-1H-pyrrole-3-carboxamide], the EC50 [1, 5] was < 0.01 µM and the EC50 (HBV DNA in HepAD38 cells; [4]) was < 0.01 µM.

Compound `Cn1cc(C(=O)Nc2ccc(F)c(C#N)c2)cc1C(=O)C(=O)NC1(C(F)(F)F)COC1` [Example 50, N-(3-cyano-4-fluorophenyl)-1-methyl-5-(2-oxo-2-((3-(trifluoromethyl)oxetan-3-yl)amino)acetyl)-1H-pyrrole-3-carboxamide] has an EC50 (HBV DNA in HepAD38 cells; [4]) of 0.05 to 0.1 µM.

With `Cc1c(C(=O)Nc2ccc(F)c(C#N)c2)c(F)c(C(=O)C(=O)N[C@@H](C)C(F)(F)F)n1C` [Example 54, (S)—N-(3-cyano-4-fluorophenyl)-4-fluoro-1,2-dimethyl-5-(2-oxo-2-((1,1,1-trifluoroprop-2-yl)amino)acetyl)-1H-pyrrole-3-carboxamide] the EC50 ([1]; HepG2.2.15, 144 h) was < 0.01 µM and the EC50 (HBV DNA in HepAD38 cells; HePAD38, 144 h) was 0.01 to 0.05 µM.

`Cc1c(C(=O)Nc2ccc(F)c(C#N)c2)c(Cl)n(C)c1C(=O)C(=O)NC1(C)CC(O)C1` (stereo not drawn) [Example 55, 2-chloro-N-(3-cyano-4-fluorophenyl)-5-(2-((3-hydroxy-1-methylcyclobutyl)amino)-2-oxoacetyl)-1,4-dimethyl-1H-pyrrole-3-carboxamide] showed an EC50 ([1]; HepG2.2.15, 144 h) of 0.01 to 0.05 µM and an EC50 (HBV DNA in HepAD38 cells; HePAD38, 144 h) of 0.01 to 0.05 µM.

With `[2H]C([2H])([2H])n1c(C)c(C(=O)Nc2ccc(F)c(C#N)c2)c(C)c1C(=O)C(=O)N[C@@H](C)C(F)(F)F` [Example 60, (S)—N-(3-cyano-4-fluorophenyl)-2,4-dimethyl-1-(methyl-d3)-5-(2-oxo-2-((1,1,1-trifluoroprop-2-yl)amino)acetyl)-1H-pyrrole-3-carboxamide] the EC50 (HBV DNA in HepAD38 cells; [4]) was < 0.01 µM.
